Data from ChEMBL document CHEMBL1201862, “PubChem BioAssay data set” (2004).
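A five-concentration, 48-hour dose response in 96-well plates underlies each endpoint, interpolated linearly between surrounding concentrations. The concentration for 50% growth inhibition is given as GI50.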 The source made the active and inactive calls. Cut-off read from the data, not from the text of the source: active = GI50 up to about 1.1 µM and inactive = higher. Starred links: 1 amine or outer side, 2 acyl side, 3 side chain; linkers in the order of their positions; H or OH if unused. Non-standard residues stand in square brackets, D forms with d. Residues, ends and D or L forms follow the SMILES beside them. *: point of attachment. X34 = CC(=O)N(C)SCC(N[*:1])C(=O)[*:2]; Cbz = O=C(OCc1ccccc1)*; Bn = c1ccc(C*)cc1; For = O=C*

Key:
Assay in all cases: NCI tumour cell line growth inhibition, 48 h
UO-31 = system: UO-31
SK-OV-3 = system: SK-OV-3
M14 = system: M14
UACC-257 = system: UACC-257
CCRF-CEM = system: CCRF-CEM
SF-268 = system: SF-268
ACHN = system: ACHN
NCI-H522 = system: NCI-H522
HOP-62 = system: HOP-62
Hs-578T = system: Hs-578T
MCF7 = system: MCF7
LOX IMVI = system: LOX IMVI
RXF 393 = system: RXF 393
OVCAR-8 = system: OVCAR-8
HCT-116 = system: HCT-116
EKVX = system: EKVX
K562 = system: K562
NCI-H460 = system: NCI-H460
OVCAR-3 = system: OVCAR-3
NCI-H23 = system: NCI-H23

Measured: GI50

O=C(O)CC1NCc2cc3ccccc3nc21 (stereo not given)
inactive: UO-31 > 100 µM | SK-OV-3 > 100 µM | M14 > 100 µM | UACC-257 > 100 µM | CCRF-CEM > 100 µM | SF-268 > 100 µM | ACHN > 100 µM | NCI-H522 > 100 µM | HOP-62 > 100 µM | Hs-578T > 100 µM | MCF7 > 100 µM | LOX IMVI > 100 µM | RXF 393 > 100 µM | OVCAR-8 > 100 µM | HCT-116 > 100 µM | EKVX 61.9 µM | K562 > 100 µM | NCI-H460 > 100 µM | OVCAR-3 > 100 µM | NCI-H23 > 100 µM

O=C(CC(NC(=O)C(F)(F)F)C(=O)O)OCc1ccccc1 (stereo not given)
inactive: UO-31 > 100 µM | SK-OV-3 > 100 µM | M14 > 100 µM | UACC-257 > 100 µM | CCRF-CEM > 100 µM | SF-268 > 100 µM | ACHN > 100 µM | NCI-H522 > 100 µM | HOP-62 > 100 µM | Hs-578T > 100 µM | MCF7 > 100 µM | LOX IMVI > 100 µM | RXF 393 > 100 µM | OVCAR-8 > 100 µM | HCT-116 > 100 µM | EKVX > 100 µM | K562 > 100 µM | NCI-H460 > 100 µM | OVCAR-3 > 100 µM | NCI-H23 > 100 µM

Oc1[nH]c(Nc2ccc(Cl)c(C(F)(F)F)c2)nc2ncnc1-2
inactive: UO-31 > 100 µM | SK-OV-3 > 100 µM | M14 57.4 µM | UACC-257 59.2 µM | CCRF-CEM 21 µM | SF-268 36.2 µM | ACHN 44.5 µM | NCI-H522 14.2 µM | HOP-62 > 100 µM | Hs-578T 38.5 µM | MCF7 27.2 µM | LOX IMVI 25.5 µM | RXF 393 26.1 µM | OVCAR-8 31.8 µM | HCT-116 34.7 µM | EKVX 53.1 µM | K562 39.6 µM | NCI-H460 51.8 µM | OVCAR-3 36.6 µM | NCI-H23 73.8 µM

CC(=O)N(C)SCC(NC(=O)C(Cc1ccccc1)NC(=O)OCc1ccccc1)C(=O)NC(Cc1ccccc1)C(=O)NC(Cc1cn(C=O)c2ccccc12)C(=O)NC(CCCCNC(=O)OCc1ccccc1)C(=O)NC(C(=O)NC(CSN(C)C(C)=O)C(=O)NC(C(N)=O)C(C)OCc1ccccc1)C(C)OCc1ccccc1 (stereo not given) (Cbz-F[X34]FW(For)K(Cbz)T(Bn)[X34]T(Bn)-NH2; configuration not given here)
inactive: UO-31 45.7 µM | SK-OV-3 33.2 µM | M14 46.9 µM | UACC-257 > 100 µM | CCRF-CEM > 100 µM | SF-268 > 100 µM | ACHN > 100 µM | NCI-H522 87.9 µM | HOP-62 82.8 µM | Hs-578T 8.63 µM | MCF7 > 100 µM | LOX IMVI > 100 µM | RXF 393 14.6 µM | OVCAR-8 26.1 µM | HCT-116 61.5 µM | EKVX > 100 µM | K562 > 100 µM | NCI-H460 > 100 µM | OVCAR-3 > 100 µM | NCI-H23 32 µM
